Numbers after ± are expanded uncertainties.
Conditions: for viscosity / mass density: 102 kPa, Liquid; for viscosity: Concentric cylinders viscometry; for mass density: Vibrating tube method

Row | Compound | viscosity (348.15 K) [mPa·s] | mass density (348.15 K) [kg/m3] | viscosity (353.15 K) [mPa·s] | mass density (353.15 K) [kg/m3] | viscosity (358.15 K) [mPa·s] | mass density (358.15 K) [kg/m3] | viscosity (363.15 K) [mPa·s] | mass density (363.15 K) [kg/m3] | Triple point temperature (Crystal, DSC) [K] | viscosity (343.15 K) [mPa·s] | mass density (343.15 K) [kg/m3] | further results
1 | CCCCn1cc[n+](C)c1.CS(=O)(=O)[O-] [1-butyl-3-methylimidazolium methanesulfonate] | 36.51 ± 3.7 | 1139.4 ± 2.5 | 30.57 ± 3.1 | 1136.3 ± 2.5 | 25.89 ± 2.6 | 1133.1 ± 2.5 | 22.16 ± 2.2 | 1130 ± 2.5 | 348 ± 6 |  |  | 
2 | CCCCn1cc[n+](C)c1.[Cl-] [1-butyl-3-methylimidazolium chloride] | 189.4 ± 19 | 1054.8 ± 2.9 | 142.7 ± 15 | 1052 ± 2.8 | 109.6 ± 11 | 1049.3 ± 2.8 | 85.65 ± 8.7 | 1046.5 ± 2.8 | 342 ± 6 | 256.7 ± 26 | 1057.5 ± 2.9 | Glass transition temperature (Glass, DSC): -42 ± 6 °C
3 | CCCCn1cc[n+](C)c1.O=[N+]([O-])[O-] [1-butyl-3-methylimidazolium nitrate] | 23.4 ± 2.4 | 1123.9 ± 2.7 | 20.29 ± 2.1 | 1120.9 ± 2.7 | 17.73 ± 1.8 | 1117.9 ± 2.7 | 15.61 ± 1.6 | 1115 ± 2.7 |  | 27.29 ± 2.8 | 1127 ± 2.7 | viscosity (303.15 K): 148.1 ± 15 mPa·s; mass density (303.15 K): 1151.9 ± 2.8 kg/m3; viscosity (308.15 K): 112.9 ± 11 mPa·s; mass density (308.15 K): 1148.7 ± 2.8 kg/m3; viscosity (313.15 K): 87.87 ± 8.9 mPa·s; mass density (313.15 K): 1145.5 ± 2.8 kg/m3; viscosity (318.15 K): 69.65 ± 7 mPa·s; mass density (318.15 K): 1142.3 ± 2.8 kg/m3; viscosity (323.15 K): 56.17 ± 5.7 mPa·s; mass density (323.15 K): 1139.2 ± 2.8 kg/m3; viscosity (328.15 K): 45.97 ± 4.6 mPa·s; mass density (328.15 K): 1136.1 ± 2.8 kg/m3; viscosity (333.15 K): 38.11 ± 3.8 mPa·s; mass density (333.15 K): 1133.1 ± 2.8 kg/m3; viscosity (338.15 K): 32.05 ± 3.2 mPa·s; mass density (338.15 K): 1130 ± 2.7 kg/m3; Triple point temperature (Crystal 1, DSC): 308 ± 6 K; Triple point temperature (Crystal 4, DSC): 279 ± 6 K
